The source made the active and inactive calls. The rule behind the calls is not given here.
Legend:
MCF7 [1] = assay: Induction of apoptosis in human MCF7 cells assessed as increase in cleaved caspase-9 level at IC50 after 48 hrs by western blot analysis; format: functional, cell-based
MCF7 [2] = assay: Induction of apoptosis in human MCF7 cells assessed as dead cells at IC50 after 24 hrs by annexin V-FITC/propidium iodide staining based flow cytometric analysis (reference value: 0.2%); format: functional
MCF7 [3] = assay: Induction of apoptosis in human MCF7 cells assessed as viable cells at IC50 after 24 hrs by annexin V-FITC/propidium iodide staining based flow cytometric analysis (reference value: 99.8%); format: functional
MCF7 [4] = assay: Induction of apoptosis in human MCF7 cells assessed as rounded cells at IC50 after 24 hrs by inverted phase contrast microscopic analysis; format: functional, cell-based
MCF7 [5] = assay: Induction of ROS generation in human MCF7 cells at IC50 after 24 hrs by CM-H2DCFDA staining based flow cytometric analysis (reference value: 12.6%); format: functional
MCF7 [6] = assay: Cell cycle arrest in human MCF7 cells assessed as accumulation at G0/G1 phase at IC50 after 24 hrs by propidium iodide staining based flow cytometric analysis (reference value: 59.5%); format: functional
MCF7 [7] = assay: Induction of apoptosis in human MCF7 cells assessed as polarized mitochondrial membrane at IC50 after 48 hrs by JC-1 dye based FACS analysis (reference value: 90%); format: functional
MCF7 [8] = assay: Induction of apoptosis in human MCF7 cells assessed as depolarized mitochondrial membrane at IC50 after 24 hrs by JC-1 dye based FACS analysis (reference value: 10%); format: functional
MCF7 [9] = assay: Cytotoxicity against human MCF7 cells assessed as growth inhibition after 72 hrs by MTT assay; format: functional, cell-based; details: MCF7, 72 h
MCF7 [10] = assay: Cell cycle arrest in human MCF7 cells assessed as accumulation at G2/M phase at IC50 after 24 hrs by propidium iodide staining based flow cytometric analysis (reference value: 24.2%); format: functional
MCF7 [11] = assay: Induction of apoptosis in human MCF7 cells assessed as late apoptotic cells at IC50 after 48 hrs by annexin V-FITC/propidium iodide staining based flow cytometric analysis (reference value: 0.0%); format: functional
MCF7 [12] = assay: Induction of apoptosis in human MCF7 cells assessed as viable cells at IC50 after 48 hrs by annexin V-FITC/propidium iodide staining based flow cytometric analysis (reference value: 99.8%); format: functional
MCF7 [13] = assay: Induction of apoptosis in human MCF7 cells assessed as progressive cell detachment at IC50 after 24 hrs by inverted phase contrast microscopic analysis; format: functional, cell-based
MCF7 [14] = assay: Induction of apoptosis in human MCF7 cells assessed as early apoptotic cells at IC50 after 24 hrs by annexin V-FITC/propidium iodide staining based flow cytometric analysis (reference value: 0.1%); format: functional
MCF7 [15] = assay: Cell cycle arrest in human MCF7 cells assessed as accumulation at G2/M phase at IC50 after 48 hrs by propidium iodide staining based flow cytometric analysis (reference value: 24.2%); format: functional
MCF7 [16] = assay: Induction of apoptosis in human MCF7 cells assessed as polarized mitochondrial membrane at IC50 after 24 hrs by JC-1 dye based FACS analysis (reference value: 90%); format: functional
MCF7 [17] = assay: Induction of apoptosis in human MCF7 cells assessed as late apoptotic cells at IC50 after 24 hrs by annexin V-FITC/propidium iodide staining based flow cytometric analysis (reference value: 0.0%); format: functional
MCF7 [18] = assay: Induction of apoptosis in human MCF7 cells assessed as ratio of depolarized to polarized mitochondrial membrane at IC50 by JC-1 dye based FACS analysis; format: functional, cell-based; details: TDE = time-dependent effect
MCF7 [19] = assay: Induction of apoptosis in human MCF7 cells assessed as increase in cleaved PARP-1 level at IC50 after 48 hrs by western blot analysis; format: functional, cell-based
MCF7 [20] = assay: Induction of apoptosis in human MCF7 cells assessed as increase in cleaved caspase-7 level at IC50 after 48 hrs by western blot analysis; format: functional, cell-based
MCF7 [21] = assay: Induction of apoptosis in human MCF7 cells assessed as early apoptotic cells at IC50 after 48 hrs by annexin V-FITC/propidium iodide staining based flow cytometric analysis (reference value: 0.1%); format: functional
MCF7 [22] = assay: Cell cycle arrest in human MCF7 cells assessed as accumulation at S phase at IC50 after 24 hrs by propidium iodide staining based flow cytometric analysis (reference value: 16.3%); format: functional
MCF7 [23] = assay: Cell cycle arrest in human MCF7 cells assessed as accumulation at S phase at IC50 after 48 hrs by propidium iodide staining based flow cytometric analysis (reference value: 16.3%); format: functional
MCF7 [24] = assay: Cell cycle arrest in human MCF7 cells assessed as accumulation at G0/G1 phase at IC50 after 48 hrs by propidium iodide staining based flow cytometric analysis (reference value: 59.5%); format: functional
MCF7 [25] = assay: Induction of apoptosis in human MCF7 cells assessed as depolarized mitochondrial membrane at IC50 after 48 hrs by JC-1 dye based FACS analysis (reference value: 10%); format: functional
MCF7 [26] = assay: Induction of apoptosis in human MCF7 cells assessed as dead cells at IC50 after 48 hrs by annexin V-FITC/propidium iodide staining based flow cytometric analysis (reference value: 0.2%); format: functional

| Compound | Activity (MCF7 [1]) | Activity (MCF7 [2]) | Activity (MCF7 [3]) | Activity (MCF7 [4]) | Activity (MCF7 [5]) | Activity (MCF7 [6]) | Activity (MCF7 [7]) | Activity (MCF7 [8]) | IC50 (MCF7 [9]) | Activity (MCF7 [10]) | Activity (MCF7 [11]) | Activity (MCF7 [12]) | Activity (MCF7 [13]) | Activity (MCF7 [14]) | Activity (MCF7 [15]) | Activity (MCF7 [16]) | Activity (MCF7 [17]) | Activity (MCF7 [18]) | Activity (MCF7 [19]) | Activity (MCF7 [20]) | also measured |
| --- | --- | --- | --- | --- | --- | --- | --- | --- | --- | --- | --- | --- | --- | --- | --- | --- | --- | --- | --- | --- | --- |
| C=C1CC[C@@H]2[C@](C)(CO)[C@H](O)CC[C@@]2(C)[C@@H]1CC1CN(Cc2ccccc2)[C@@]2(C(=O)Nc3ccc(C)cc32)[C@]12C(=O)OC[C@H]2O (some centres not stated) | Active | 0.8% | 79.2% | Active | 99.9% | 42.4% | 11.1% | 79% | 10.9 µM | 29.1% | 1.5% | 77.8% | Active | 19.7% | 19.4% | 21% | 0.6% | tde | Active | Active | Activity (MCF7 [21]): 18.5%; Activity (MCF7 [22]): 28.5%; Activity (MCF7 [23]): 41.7%; Activity (MCF7 [24]): 37.9%; Activity (MCF7 [25]): 88.9%; Activity (MCF7 [26]): 2.2% |
| C=C1CC[C@@H]2[C@](C)(CO)[C@H](O)CC[C@@]2(C)[C@@H]1CC1CN(Cc2ccccc2)[C@@]2(C(=O)Nc3ccc(Cl)cc32)[C@]12C(=O)OC[C@H]2O (some centres not stated) | Active | 0.9% | 71.5% | Active | 99.4% | 42.7% | 10.2% | 62.3% | 12.7 µM | 29.5% | 7.1% | 7.9% | Active | 28.5% | 20.2% | 37.7% | 0.7% | tde | Active | Active | Activity (MCF7 [21]): 84.8%; Activity (MCF7 [22]): 27.8%; Activity (MCF7 [23]): 35.8%; Activity (MCF7 [24]): 42.9%; Activity (MCF7 [25]): 89.8%; Activity (MCF7 [26]): 0.2% |
| C=C1CC[C@@H]2[C@](C)(CO)[C@H](O)CC[C@@]2(C)[C@@H]1CC1CN(Cc2ccccc2)[C@@]2(C(=O)Nc3c(F)cccc32)[C@]12C(=O)OC[C@H]2O (some centres not stated) | Active | 0.6% | 76.3% | Active | 96.2% | 46.6% | 2.5% | 50% | 13.7 µM | 22.2% | 4.1% | 36.7% | Active | 22.7% | 17.4% | 50.1% | 0.4% | tde | Active | Active | Activity (MCF7 [21]): 57.8%; Activity (MCF7 [22]): 31.1%; Activity (MCF7 [23]): 48.1%; Activity (MCF7 [24]): 33.3%; Activity (MCF7 [25]): 97.5%; Activity (MCF7 [26]): 1.4% |
| C=C1CC[C@@H]2[C@](C)(CO)[C@H](O)CC[C@@]2(C)[C@@H]1CC1CN(Cc2ccccc2)[C@@]2(C(=O)Nc3ccc(Br)cc32)[C@]12C(=O)OC[C@H]2O (some centres not stated) | Active | 0.9% | 61.4% | Active | 98.1% | 40.3% | 6.4% | 46.1% | 12.8 µM | 31.1% | 4.4% | 1.7% | Active | 35.7% | 22% | 54.1% | 2% | tde | Active | Active | Activity (MCF7 [21]): 93.9%; Activity (MCF7 [22]): 28.5%; Activity (MCF7 [23]): 43%; Activity (MCF7 [24]): 34.2%; Activity (MCF7 [25]): 93.1%; Activity (MCF7 [26]): 0% |
| N#CC(C#N)=NNc1cccc(Cl)c1 [CARBONYL CYANIDE M-CHLOROPHENYLHYDRAZONE] | – | – | – | – | – | – | – | 100% | – | – | – | – | – | – | – | 0% | – | – | – | – | – |
| C=C1CC[C@@H]2[C@](C)(CO)[C@H](O)CC[C@@]2(C)[C@@H]1CC1CN(Cc2ccccc2)[C@@]2(C(=O)c3cccc4cccc2c34)[C@]12C(=O)OC[C@H]2O (some centres not stated) | Active | 0.3% | 56.5% | Active | 97.7% | 46.3% | 3.6% | 83% | 8.9 µM | 29.8% | 4.6% | 0.4% | Active | 42.4% | 27.5% | 17% | 0.8% | tde | Active | Active | Activity (MCF7 [21]): 95%; Activity (MCF7 [22]): 23.9%; Activity (MCF7 [23]): 38.6%; Activity (MCF7 [24]): 32.3%; Activity (MCF7 [25]): 96.4%; Activity (MCF7 [26]): 0% |

Reference: ChEMBL document CHEMBL3734695, “Cytotoxic potential of dispirooxindolo/acenaphthoquino andrographolide derivatives against MCF-7 cell line” (Medchemcomm, 2015)
